Results: ChEMBL document CHEMBL5724914, “Linking interpersonal differences in gut microbiota composition and drug biotransformation activity” (2024)

Assays:
Conditions in all cases: 2 µM
[1] = (§1) The drug is tested on Z-030 corresponding to mouse gut metagenome with ENA study accession number: PRJEB37062 and ENA sample accession number: ERS12561829 for biotransformation under anaerobic condition. The drug concentrations were measured over 9 timepoints collected between 0 and 24 hours of incubation by liquid-chromatography-coupled mass spectrometry (LC–MS)
[2] = as §1, with “Z-029” for “Z-030”, “rat” for “mouse”, “ERS12561828” for “ERS12561829”
[3] = as §1, with “Z-028” for “Z-030”, “ERS12561827” for “ERS12561829”
[4] = as §1, with “Z-027” for “Z-030”, “to” for “to mouse gut”, “ERS12561826” for “ERS12561829”
[5] = as §1, with “Z-026” for “Z-030”, “to” for “to mouse gut”, “ERS12561825” for “ERS12561829”
[6] = as §1, with “Z-025” for “Z-030”, “rabbit” for “mouse”, “ERS12561824” for “ERS12561829”
[7] = as §1, with “Z-024” for “Z-030”, “pig” for “mouse”, “ERS12561823” for “ERS12561829”
[8] = as §1, with “Z-023” for “Z-030”, “to” for “to mouse gut”, “ERS12561822” for “ERS12561829”
[9] = as §1, with “Z-022” for “Z-030”, “ERS12561821” for “ERS12561829”
[10] = as §1, with “Z-021” for “Z-030”, “to” for “to mouse gut”, “ERS12561820” for “ERS12561829”
[11] = as §1, with “Z-020” for “Z-030”, “rabbit” for “mouse”, “ERS12561819” for “ERS12561829”
[12] = as §1, with “Z-019” for “Z-030”, “rat” for “mouse”, “ERS12561818” for “ERS12561829”
[13] = as §1, with “Z-018” for “Z-030”, “pig” for “mouse”, “ERS12561817” for “ERS12561829”
[14] = as §1, with “Z-017” for “Z-030”, “ERS12561816” for “ERS12561829”
[15] = as §1, with “Z-016” for “Z-030”, “ERS12561815” for “ERS12561829”
[16] = as §1, with “Z-014” for “Z-030”, “rat” for “mouse”, “ERS12561814” for “ERS12561829”
[17] = as §1, with “Z-013” for “Z-030”, “rabbit” for “mouse”, “ERS12561813” for “ERS12561829”
[18] = as §1, with “Z-012” for “Z-030”, “to” for “to mouse gut”, “ERS12561812” for “ERS12561829”
[19] = as §1, with “Z-011” for “Z-030”, “ERS12561811” for “ERS12561829”
[20] = as §1, with “Z-010” for “Z-030”, “to” for “to mouse gut”, “ERS12561810” for “ERS12561829”
[21] = as §1, with “Z-009” for “Z-030”, “pig” for “mouse”, “ERS12561809” for “ERS12561829”
[22] = as §1, with “Z-008” for “Z-030”, “to” for “to mouse gut”, “ERS12561808” for “ERS12561829”
[23] = as §1, with “Z-007” for “Z-030”, “rat” for “mouse”, “ERS12561807” for “ERS12561829”
[24] = as §1, with “Z-006” for “Z-030”, “ERS12561806” for “ERS12561829”
[25] = as §1, with “Z-005” for “Z-030”, “to” for “to mouse gut”, “ERS12561805” for “ERS12561829”
[26] = as §1, with “Z-004” for “Z-030”, “to” for “to mouse gut”, “ERS12561804” for “ERS12561829”
[27] = as §1, with “Z-003” for “Z-030”, “pig” for “mouse”, “ERS12561803” for “ERS12561829”
[28] = as §1, with “Z-002” for “Z-030”, “rabbit” for “mouse”, “ERS12561802” for “ERS12561829”
[29] = as §1, with “Z-001” for “Z-030”, “ERS12561801” for “ERS12561829”
Also: call rule not given here.

Bacterial Biotransformation [1]	Bacterial Biotransformation [3]	Bacterial Biotransformation [4]	Bacterial Biotransformation [5]	Bacterial Biotransformation [7]	Bacterial Biotransformation [8]	Bacterial Biotransformation [9]	Bacterial Biotransformation [10]	Bacterial Biotransformation [18]	Bacterial Biotransformation [19]	Bacterial Biotransformation [20]	Bacterial Biotransformation [21]	Bacterial Biotransformation [22]	Bacterial Biotransformation [23]	Bacterial Biotransformation [24]	Bacterial Biotransformation [25]	Bacterial Biotransformation [26]	Bacterial Biotransformation [27]	Bacterial Biotransformation [28]	Bacterial Biotransformation [29]	Compound	further results
Compound NOT metabolized	Compound metabolized	Compound NOT metabolized	Compound metabolized	Compound metabolized	Compound metabolized	Compound metabolized	Compound metabolized	Compound NOT metabolized	Compound NOT metabolized	Compound metabolized	Compound metabolized	Compound metabolized	Compound NOT metabolized	Compound metabolized	Compound metabolized	Compound NOT metabolized	Compound metabolized	Compound NOT metabolized	Compound NOT metabolized	O=C1CCc2ccc(OCCCCN3CCN(c4cccc(Cl)c4Cl)CC3)cc2N1 [ARIPIPRAZOLE]	Bacterial Biotransformation [2]: Compound NOT metabolized; Bacterial Biotransformation [6]: Compound metabolized; Bacterial Biotransformation [11]: Compound metabolized; Bacterial Biotransformation [12]: Compound NOT metabolized; Bacterial Biotransformation [13]: Compound metabolized; Bacterial Biotransformation [14]: Compound metabolized; Bacterial Biotransformation [15]: Compound metabolized; Bacterial Biotransformation [16]: Compound metabolized; Bacterial Biotransformation [17]: Compound metabolized
	Compound NOT metabolized	Compound NOT metabolized	Compound metabolized	Compound metabolized	Compound metabolized	Compound metabolized	Compound metabolized	Compound metabolized	Compound NOT metabolized	Compound metabolized	Compound metabolized	Compound NOT metabolized	Compound NOT metabolized	Compound NOT metabolized	Compound NOT metabolized	Compound metabolized	Compound metabolized	Compound metabolized	Compound NOT metabolized	C[C@H]1C[C@H]2[C@@H]3CCC4=CC(=O)C=C[C@]4(C)[C@@]3(F)[C@@H](O)C[C@]2(C)[C@@]1(O)C(=O)CO [BETAMETHASONE]	
Compound NOT metabolized	Compound NOT metabolized	Compound NOT metabolized	Compound NOT metabolized	Compound NOT metabolized		Compound NOT metabolized		Compound NOT metabolized	Compound NOT metabolized	Compound NOT metabolized	Compound NOT metabolized	Compound NOT metabolized	Compound NOT metabolized	Compound NOT metabolized	Compound NOT metabolized	Compound NOT metabolized	Compound NOT metabolized	Compound NOT metabolized	Compound NOT metabolized	Cc1ccc(NC(=O)c2ccc(CN3CCN(C)CC3)cc2)cc1Nc1nccc(-c2cccnc2)n1 [IMATINIB]	Bacterial Biotransformation [2]: Compound NOT metabolized; Bacterial Biotransformation [6]: Compound NOT metabolized; Bacterial Biotransformation [11]: Compound NOT metabolized; Bacterial Biotransformation [13]: Compound NOT metabolized; Bacterial Biotransformation [14]: Compound NOT metabolized; Bacterial Biotransformation [15]: Compound NOT metabolized; Bacterial Biotransformation [16]: Compound NOT metabolized; Bacterial Biotransformation [17]: Compound NOT metabolized
Compound NOT metabolized	Compound NOT metabolized	Compound NOT metabolized	Compound NOT metabolized	Compound NOT metabolized	Compound NOT metabolized	Compound NOT metabolized	Compound NOT metabolized	Compound metabolized	Compound NOT metabolized	Compound metabolized	Compound metabolized	Compound NOT metabolized	Compound NOT metabolized	Compound NOT metabolized	Compound metabolized	Compound metabolized	Compound metabolized	Compound metabolized	Compound NOT metabolized	CN1CCCCC1CCN1c2ccccc2Sc2ccc([S+](C)[O-])cc21.O=S(=O)(O)c1ccccc1 (stereo unspecified) [MESORIDAZINE BESYLATE]	Bacterial Biotransformation [2]: Compound NOT metabolized; Bacterial Biotransformation [6]: Compound metabolized; Bacterial Biotransformation [15]: Compound metabolized; Bacterial Biotransformation [17]: Compound NOT metabolized
			Compound metabolized		Compound metabolized		Compound NOT metabolized	Compound metabolized			Compound metabolized	Compound NOT metabolized		Compound NOT metabolized				Compound NOT metabolized		CN1CCN(CCCN2c3ccccc3Sc3ccc(Cl)cc32)CC1.O=S(=O)(O)CCS(=O)(=O)O [PROCHLORPERAZINE EDISYLATE]	
